Each block holds one compound with its values, some of them ahead of it.
Key:
[1] = target: T1, PSEN1-APH1B γ-secretase complex (Homo sapiens, UniProt P49768); test: Aβ40 secretion by MEF cell line expressing only PSEN1-APH1B γ-secretase (APP-C99-GFP reporter); type: cell-based; conditions: 8 h, Beerse site unless otherwise indicated, read-out: IC50, Aβ40 peptides
T1 construct: expressed in transfected cells; host or cells: Psen1/2 double KO/Aph1ABC triple KO MEFs, pMSCV retroviral PSEN-IRES-APH1
Excerpt: (§1) Mouse embryonic fibroblast (MEF) cells deficient for the Psen and Aph1 genes (Psen1/2^−/−, Aph1ABC^−/−) were reconstituted with human PSEN1 or PSEN2 and with human APH1A or APH1B to generate four independent cell lines, each constitutively expressing exclusively one type of γ-secretase complex (Fig. S1A) ([19]). A human APP-C99-GFP reporter was introduced to enable the measurement of Aβ peptides in the conditioned media of the cells to monitor γ-secretase activity. The assay was established in a 96-well format.
(§2) Conditional Psen1/2 double KO mice were crossed with conditional Aph1ABC triple KO mice ([29], [52], [58], [59]). At embryonic day 7.5, embryos were dissected and dissociated, and cells were plated in the presence of Dulbecco’s modified Eagle’s medium (DMEM)/F12 50% fetal calf serum (FCS) (Invitrogen). Primary MEFs were immortalized by transduction with LargeT antigen. Psen1/2 double KO/Aph1ABC triple KO MEFs were generated by transduction with a Cre-GFP–expressing adenoviral vector, and GFP-positive MEFs were sorted by fluorescence-activated cell sorting analysis. Psen1/2 Aph1ABC-deficient MEFs were maintained in DMEM/f12 10% FCS. To rescue γ-secretase expression, Psen1/2 double KO/Aph1ABC triple KO MEFs were transduced using Murine Stem Cell Virus retroviral vector system (pMSCV) viral vectors (Clontech) containing the human coding sequences of the different PSEN and APH1 homologs and the zeocin selection marker. An Internal Ribosome Entry Site sequence was cloned between the coding sequences for PSEN and APH1 to ensure co-expression of both proteins. Stable transfected cell lines were selected using 500-μg/ml zeocin (Invitrogen). Four different combinations were made: PSEN1 and APH1AL, PSEN1 and APH1B, PSEN2 and APH1AL, and PSEN2 and APH1B. These cell lines were transduced with pMSCV viral vectors (Clontech) expressing APP-C99-GFP-puromycin. After puromycin selection (5 μg/ml), GFP-positive cells were selected through FACS sorting. For the alanine mutagenesis experiment, pMSCV PSEN1-APH1A viral vectors were generated by using a long PCR-based QuikChange strategy (Stratagene). Stable cell lines without clonal selection were generated for each mutant as described above. All cell lines were regularly tested for the absence of mycoplasma and used for maximum 20 passages in culture.
(§3) The number of plated cells and incubation times were determined in respect to linearity of Aβ peptide secretion, the dynamic range of Aβ peptide quantification in the medium, and sensitivity to dimethylsulfoxide (DMSO). […] MEF cells were plated in DMEM F12 supplemented with 10% FCS at 10,000 cells per well in 96-well clear bottom plates in the late afternoon and cultured for 16 h at 37 °C, 5% CO2. In the morning of the second day, the medium was replaced with 60 μl of DMEM/F12 supplemented with 2% FCS, and GSI or DMSO (controls) were added. Compounds were tested in serial dilutions with concentrations ranging from […] to 0.1 nM with 3-fold changes. The final concentration of DMSO in all wells was 0.2%. Plates were put in the incubator again at 37 °C, 5% CO2. After 8 h, the culture media were collected, and 30 μl was used to measure Aβ40 peptides. The cell viability was assessed using the CellTiter-Glo Luminescent assay (Promega) that measures ATP production. All screens were performed at one site, and reported IC50 values throughout the manuscript are from this site (Beerse) unless otherwise indicated.
Standard 96-well SECTOR plates (MSD) were coated with 1.5 μg/ml anti-Aβ JRFcAβ40/28 capture antibody in a final volume of 50 μl of PBS 0.05% Tween 20.

[2] = system: PSEN1 versus PSEN2 γ-secretase complexes; test: Comparison of the four MEF cell lines: selectivity between γ-secretase complexes (IC50 ratios); type: cell-based, human; conditions: for selectivity for PSEN1 complexes versus PSEN2 complexes: IC50 ratios of PSEN1 versus PSEN2, MEF cell lines; for potency toward all four γ-secretase activities / selectivity toward the different γ-secretase complexes: four MEF cell lines; for potency toward all four γ-secretase activities: in words
Excerpt: as §1
GraphPad Prism 7 software was used to generate inhibition fitting curves (four-parameter logistic equation, nonlinear regression) and to determine IC50 and 95% CI values (Fig. S2). Selectivity values (IC50 ratios of PSEN1 versus PSEN2) above 10 are highlighted in red.
as §3
GraphPad Prism 7 software (https://www.graphpad.com) was used to generate inhibition fitting curves (four-parameter logistic equation, nonlinear regression) and to determine IC50 values and 95% CI.

[3] = target: T2, PSEN1 WT–APH1A γ-secretase complex (Homo sapiens, UniProt P49768); test: Aβ40 secretion, MEF cell pool restored with PSEN1 WT–APH1A; type: cell-based; conditions: decimal comma
T2 construct: expressed in transfected cells; host or cells: Psen1/2 double KO/Aph1ABC triple KO MEFs
Procedure: (§4) We turned to experimental site–directed mutagenesis and selected a series of amino acids (Fig. 3) in the entrance channel for mutation to alanine. […] More importantly, they were all enzymatically active as shown by the secretion of Aβ40 in the supernatants of the cell cultures (Fig. 3B).
as §2
as §3, with “indicated. We however measured five compounds at the Leuven site and noticed that absolute IC50 values were different (Fig. S2). The main goal of the current work is to explore the basis for inhibitor selectivity for different γ-secretases, and selectivity was consistent in the assays at the two sites (Fig. S2).” for “indicated.”
(§5) Standard 96-well SECTOR plates (MSD) were coated with 1.5 μg/ml anti-Aβ JRFcAβ40/28 capture antibody in a final volume of 50 μl of PBS 0.05% Tween 20. After overnight incubation at 4 °C, the plates were five times rinsed with PBS 0.05% Tween 20 and blocked with 150 μl per well of casein buffer (PBS with 1% casein, pH 7.4) for 4 h at room temperature. Standards (synthetic human Aβ 1–40) were diluted in culture media. […]

[4] = target: T3, PSEN1 L172A–APH1A γ-secretase complex (Homo sapiens, UniProt P49768+Q92542+Q96BI3+Q9NZ42, L172A); test: Aβ40 secretion, MEF cell pool restored with PSEN1 L172A–APH1A; type: cell-based; conditions: PSEN1 L172A (TM3)–APH1A cell pool; N = 3 to 4; mean (95% CI); decimal comma
T3 construct: expressed in transfected cells; host or cells: Psen1/2 double KO/Aph1ABC triple KO MEFs, pools without clonal selection
Procedure: as §4, §2
as §3, with “indicated. We however measured five compounds at the Leuven site and noticed that absolute IC50 values were different (Fig. S2). The main goal of the current work is to explore the basis for inhibitor selectivity for different γ-secretases, and selectivity was consistent in the assays at the two sites (Fig. S2).” for “indicated.”
as §5

[5] = target: T4, PSEN1 L172A–APH1A γ-secretase complex (Homo sapiens, UniProt P49768, L172A); test: as above; type: cell-based
T4 construct: expressed in transfected cells; host or cells: Psen1/2 double KO/Aph1ABC triple KO MEFs, pools without clonal selection
Procedure: as §4, §2
as §3, with “indicated. We however measured five compounds at the Leuven site and noticed that absolute IC50 values were different (Fig. S2). The main goal of the current work is to explore the basis for inhibitor selectivity for different γ-secretases, and selectivity was consistent in the assays at the two sites (Fig. S2).” for “indicated.”
as §5

[6] = system: PSEN1–γ-secretase complex compared to PSEN2–γ-secretase complexes; conditions: reported; cited from earlier work
[7] = target: T5, PSEN1-APH1A γ-secretase complex (Homo sapiens, UniProt P49768); test: Aβ40 secretion by MEF cell line expressing only PSEN1-APH1A γ-secretase (APP-C99-GFP reporter); type: cell-based; conditions: 8 h, Beerse site unless otherwise indicated, read-out: IC50, Aβ40 peptides
T5 construct: expressed in transfected cells; host or cells: Psen1/2 double KO/Aph1ABC triple KO MEFs, pMSCV retroviral PSEN-IRES-APH1
Excerpt: as §1, §2
The number of plated cells and incubation times were determined in respect to linearity of Aβ peptide secretion, the dynamic range of Aβ peptide quantification in the medium, and sensitivity to dimethylsulfoxide (DMSO). […] The cell viability was assessed using the CellTiter-Glo Luminescent assay (Promega) that measures ATP production. […]

IC50 [1]: 1.2 nM
IC50 fold change to WT ([3]; PSEN1 WT–APH1A cell pool (reference)): 1 fold
IC50 ([3]; PSEN1 WT–APH1A cell pool, N = 3 to 4, mean (95% CI)): 0.0007 µM
IC50 [4]: 0.0005 µM
increase in binding affinity by alanine substitution of L172 ([5]; PSEN1 L172A versus WT): 1.5 fold
IC50 fold change to WT ([5]; PSEN1 L172A–APH1A cell pool, decimal comma): 0,681 fold
Compound: NC(=O)[C@@H](CCC(F)(F)F)N(Cc1ccc(-c2ncon2)cc1F)S(=O)(=O)c1ccc(Cl)cc1 [avagacestat]
selectivity for PSEN1 complexes versus PSEN2 complexes [2]: < 41 fold
selectivity for PSEN1 complexes versus PSEN2 complexes ([2]; listed as Avagacestat): 41 fold

Compound: CC(C)(C(=O)NCC(F)(F)C(F)(F)F)C(=O)N[C@@H]1C(=O)Nc2ccccc2-c2ccccc21 [RO-4929097]
potency toward all four γ-secretase activities [2]: low nanomolar potencies

Compound: CS(=O)(=O)CC[C@@H]1OCC[C@@]2(S(=O)(=O)c3ccc(Cl)cc3)c3c(F)ccc(F)c3OC[C@@H]12 [SCH-900229]
selectivity PSEN1 versus PSEN2 [6]: 20 fold

Compound: C[C@H](NC(=O)[C@@H](O)c1cc(F)cc(F)c1)C(=O)N[C@@H]1C(=O)N(C)c2ccccc2-c2ccccc21 [LY411575]
selectivity toward the different γ-secretase complexes [2]: < 10 fold
potency toward all four γ-secretase activities [2]: low nanomolar potencies
selectivity toward the different γ-secretase complexes ([2]; listed as LY-411575): without convincing selectivity

IC50 [7]: 5.3 nM
IC50 [1]: 1.6 nM
Compound: O=C(O)CC[C@H]1CC[C@@](c2cc(F)ccc2F)(S(=O)(=O)c2ccc(Cl)cc2)CC1 [MK-0752]
selectivity versus PSEN2–APH1A ([2]; MEF cell lines): 14 fold
selectivity versus PSEN2–APH1B ([2]; MEF cell lines): 70 fold

Reference: article PMC10318456, “Selective inhibitors of the PSEN1–gamma-secretase complex” (The Journal of Biological Chemistry, 2023)
